Data as given in patent US12667565B2, “Use of composition for enhancing anticancer effect, comprising ERRy inhibitor as active ingredient” (NOVMETAPHARMA CO., LTD., priority 2019, dated 2026).

What was measured:
[1] = system: Huh7-SR cell line; experiment: ROS generation measured by FACS with H2-DCF-DA; format: cell-based; conditions: DN200434 12 μM and sorafenib 10 μM, 24 hours, FIG. 3A
Protocol: (§1) The present inventors have performed experiments using sorafenib-resistant liver cancer cell lines (Huh7-SR and SK-Hep-R cell lines) and a liver cancer cell line-derived animal model (xenograft). To determine an effect of the synthetic compound DN200434, which is an inverse agonist against ERRγ, on the proliferation of liver cancer cells and ROS generation, ROS was measured using a cell count and 2′,7-dichlorofluorescin diacetate (DCF-DA). […]
(§2) In order to investigate an effect of the compound (DN200434) represented by Formula 1, which is an inverse agonist against ERRγ, on ROS generation in sorafenib-resistant liver cancer cells, the effect was measured by FACS using 2′,7′-dichlorohydrofluorescein diacetate (H2-DCF-DA; Invitrogen, USA) as an ROS probe. […] Then, the cells were incubated for 30 minutes, and washed with PBS, and data was collected using a BD Accuri™ C6 flow cytometer (BD Bioscience, USA), and analyzed using an Accuri™ C6 analysis program (BD Bioscience, USA). To determine the number of cells, the sorafenib-resistant liver cancer cell line was treated with the DN200434 compound (12 μM) in combination with sorafenib (10 μM), and stained with trypan blue, and the number of cells was then measured using a hemocytometer.

[2] = system: SK-Hep-R cell line; experiment: ROS generation measured by FACS with H2-DCF-DA; format: cell-based; conditions: DN200434 12 μM and sorafenib 10 μM, 24 hours, FIG. 3B
Protocol: as §1, §2

[3] = system: Huh7-R sorafenib-resistant liver cancer cell line; experiment: Cell proliferation (trypan blue cell count, hemocytometer); format: cell-based; conditions: FIG. 4A
Protocol: (§3) The present inventors have performed experiments using sorafenib-resistant liver cancer cell lines (Huh7-SR and SK-Hep-R cell lines) and a liver cancer cell line-derived animal model (xenograft). To determine an effect of the synthetic compound DN200434, which is an inverse agonist against ERRγ, on the proliferation of liver cancer cells and ROS generation, ROS was measured using a cell count and 2′,7-dichlorofluorescin diacetate (DCF-DA). Finally, after a sorafenib-resistant liver cancer cell line was injected into […] to induce the formation of sorafenib-resistant liver cancer, changes in size of liver cancer were confirmed in the group injected with the inverse agonist against ERRγ (DN200434) and sorafenib and the group injected with the control drug.
(§4) In order to investigate an effect of the compound (DN200434) represented by Formula 1, which is an inverse agonist against ERRγ, on ROS generation in sorafenib-resistant liver cancer cells, the effect was measured by FACS using 2′,7′-dichlorohydrofluorescein diacetate (H2-DCF-DA; Invitrogen, USA) as an ROS probe. Drug-resistant cells were treated with sorafenib (10 μM) and the DN200434 compound (12 μM) for 24 hours, and 10 μM H2-DCF-DA was added to the cells. Then, the cells were incubated for 30 minutes, and washed with PBS, and data was collected using a BD Accuri™ C6 flow cytometer (BD Bioscience, USA), and analyzed using an Accuri™ C6 analysis program (BD Bioscience, USA). To determine the number of cells, the sorafenib-resistant liver cancer cell line was treated with the DN200434 compound (12 μM) in combination with sorafenib (10 μM), and stained with trypan blue, and the number of cells was then measured using a hemocytometer.

[4] = system: SK-Hep-R sorafenib-resistant liver cancer cell line; experiment: as above; format: cell-based; conditions: FIG. 4B
Protocol: as §3, §4

[5] = system: sorafenib-resistant liver cancer cell line Huh7-R; experiment: Sorafenib-resistant liver cancer animal model (xenograft); format: in vivo, mice
Protocol: as §3
(§5) The sorafenib-resistant liver cancer cell line Huh7-R was injected into mice in order to construct a sorafenib-resistant liver cancer animal model (xenograft). Thereafter, the inverse agonist against ERRγ (e.g., DN200434 (Formula 1)) was administered in combination with sorafenib, and the size change of the formed mass was measured. In this case, the group in which the sorafenib-resistant liver cancer-derived animal model was treated with sorafenib alone was used as the comparative control.

[6] = system: sorafenib-resistant liver cancer cell line SK-Hep-R; experiment: as above; format: in vivo, mice
Protocol: as §3, §5
An animal model derived from the sorafenib-resistant liver cancer cell line SK-Hep-R was constructed in the same manner as described above, and the effect of co-administration of the DN200434 compound represented by Formula 1, which is an inverse agonist against ERRγ, and sorafenib was confirmed.

[7] = system: Huh7-SR cell line; experiment: Cell death by sorafenib (annexin/PI FACS, cleaved caspase-3); format: cell-based; conditions: Huh7-SR cells; FIGS. 1A to 1C
Protocol: (§6) Hepatocarcinoma cell lines [Huh7 cells (Korea Cell Line Bank (KCLB) No. 60104), SK-Hep cells (ATCC® HTB-52™)] were continuously exposed to sorafenib (gradually increasing to 10 μM) to construct sorafenib-resistant liver cancer cell lines (Huh7-SR and SK-Hep-R cell lines). To evaluate the cancer cell death by FACS, first, a cancer cell line was incubated in FITC-bound annexin and propidium iodide (PI) for 15 minutes, and annexin and PI binding were then measured by flow cytometry to acquire data using a BD Accuri C6 flow cytometer (BD Biosciences) and analyzed with the Accuri C6 analysis program (BD Biosciences)/FlowJo software (FlowJo, LLC.). Cancer cell line death was evaluated using a cleaved caspase-3 antibody (Cell Signaling Technology).

[8] = system: SK-Hep-R cell line; experiment: as above; format: cell-based; conditions: SK-Hep-R cells; FIGS. 1A to 1C
Protocol: as §6

[9] = DN200434 12 μM in combination with sorafenib 10 μM

Compound: CC(C)N1CCN(c2ccc(/C(=C(/CCCO)c3ccccc3)c3ccc(O)cc3)cc2)CC1 [DN200434]
- ROS [1]: increase
- ROS [2]: increase
- cell proliferation [3, 9]: significantly decreased
- cell proliferation [4, 9]: significantly decreased
- body weight change ([5]; in combination with sorafenib vs sorafenib-alone control, FIG. 5D): no difference
- tumor size ([5]; in combination with sorafenib, compared to sorafenib-alone control, FIG. 5A): significantly decreased
- tumor weight ([5]; in combination with sorafenib, compared to sorafenib-alone control, FIG. 5B): significantly decreased
- tumor volume ([5]; in combination with sorafenib, compared to sorafenib-alone control, FIG. 5C): significantly decreased
- body weight change ([6]; in combination with sorafenib vs sorafenib-alone control, FIG. 6D): no difference
- tumor size ([6]; in combination with sorafenib, compared to sorafenib-alone control, FIG. 6A): remarkably decreased
- tumor weight ([6]; in combination with sorafenib, compared to sorafenib-alone control, FIG. 6B): remarkably decreased
- tumor volume ([6]; in combination with sorafenib, compared to sorafenib-alone control, FIG. 6C): remarkably decreased

Compound: CNC(=O)c1cc(Oc2ccc(NC(=O)Nc3ccc(Cl)c(C(F)(F)F)c3)cc2)ccn1 [sorafenib, reference compound]
- cell death by sorafenib [7]: did not increase
- cell death by sorafenib [8]: did not increase
- cell proliferation ([3]; sorafenib alone): not affected
- cell proliferation ([4]; sorafenib alone): not affected
